Data taken from patent EP0046337A2, “Triazole compounds, a process for preparing them, their use as plant and pharmaceutical fungicides and as plant growth regulators and compositions containing them” (IMPERIAL CHEMICAL INDUSTRIES PLC, priority 1980, dated 1982).

Columns and labels:
Type in all cases: in vivo
[1] = system: PUCCINIA RECONDITA (WHEAT); experiment: Foliar fungal disease test on plants: Puccinia recondita on wheat; settings: 100 ppm active ingredient spray and root drench approximately 40 ppm a.i./dry soil, one or two days before inoculation, assessed four to fourteen days after inoculation
Method: (§1) The compounds were tested against a variety of foliar fungal diseases of plants. The technique employed was as follows. The plants were grown in John Innes Potting Compost (No 1 or 2) in 4 cm diameter minipots. A layer of fine sand was placed at the bottom of the pots containing the dicotyledonous plants to facilitate uptake of test compound by the roots. The test compounds were formulated either by bead milling with aqueous Dispersol T or as a solution in acetone or acetone/ethanol which was diluted to the required concentration immediately before use. For the foliage diseases, suspensions (100 ppm active ingredient) were sprayed […]. Exceptions to this were the tests on Botrytis cinerea and Venturia inaequalis. The sprays were applied to maximum retention and the root drenches to a final concentration equivalent to approximately 40 ppm a.i./dry soil. Tween 20, to give a final concentration of 0.05%, was added when the sprays were applied to cereals. For most of the tests the compound was applied to the soil (roots) and to the foliage (by spraying) one or two days before the plant was inoculated with the diseases. An exception was the test on Erysiphe graminis in which the plants were inoculated 24 hours before treatment. After inoculation, the plants were put into an appropriate environment to allow infection to take place and then incubated until the disease was ready for assessment. The period between inoculation and assessment varied from four to fourteen days according to the disease and environment. The disease control was recorded by the following grading:- • 4 = no disease • 3 = trace - 5% of disease on untreated plants • 2 = 6-25% of disease on untreated plants • 1 = 26-59% of disease on untreated plants • 0 = 60-100% of disease on untreated plants

[2] = system: ERYSIPHE GRAMINIS (BARLEY); experiment: Foliar fungal disease test on plants: Erysiphe graminis on barley; settings: 100 ppm active ingredient spray and root drench approximately 40 ppm a.i./dry soil, plants inoculated 24 hours before treatment
Method: as §1

BOTRYTIS CINEREA (GRAPE) = experiment: Foliar fungal disease test on plants: Botrytis cinerea on grape; settings: 100 ppm active ingredient, named as an exception to the usual way of application, treatment one or two days before inoculation
Method: as §1, with “For most of the tests the compound was applied to the soil (roots) and to the foliage (by spraying) one or two days before the plant was inoculated with the diseases. An exception was the test on Erysiphe graminis in which the plants were inoculated 24 hours before treatment.” left out, “The period between inoculation and assessment varied from four to fourteen days according to the disease and environment.” left out

[3] = system: CERCOSPORA ARACHIDICOLA (PEANUT); experiment: Foliar fungal disease test on plants: Cercospora arachidicola on peanut; settings: 100 ppm active ingredient spray and root drench approximately 40 ppm a.i./dry soil, one or two days before inoculation
Method: as §1

[4] = system: VENTURIA INEQUALIS (APPLE); experiment: Foliar fungal disease test on plants: Venturia inaequalis on apple; settings: 100 ppm active ingredient, named as an exception to the usual way of application, treatment one or two days before inoculation
Method: as §1

OC(Cn1cncn1)(c1ccccc1)c1cccs1 (centres unmarked) [Compound 1A, 1-(1,2,4-Triazol-1-yl)-2-phenyl-2-(2-thienyl)ethan-2-ol]
disease control grading, PUCCINIA RECONDITA (WHEAT) [1]: 3 (3 = trace - 5% of disease on untreated plants) | disease control grading, ERYSIPHE GRAMINIS (BARLEY) [2]: 4 (4 = no disease) | disease control grading, BOTRYTIS CINEREA (GRAPE) (BOTRYTIS CINEREA (GRAPE)): 0 (0 = 60-100% of disease on untreated plants) | disease control grading, CERCOSPORA ARACHIDICOLA (PEANUT) [3]: 0 (0 = 60-100% of disease on untreated plants) | disease control grading, VENTURIA INEQUALIS (APPLE) [4]: 0 (0 = 60-100% of disease on untreated plants)

OC(Cn1cnnc1)(c1ccc(Cl)s1)c1ccc(Cl)cc1Cl (centres unmarked) [Compound 11B, 1-(1,2,4-Triazol-4-yl)-2-(2,4-dichlorophenyl)-2-(5-chloro-thlen-2-yl) ethan-2-ol]
disease control grading, PUCCINIA RECONDITA (WHEAT) [1]: 4 (4 = no disease) | disease control grading, ERYSIPHE GRAMINIS (BARLEY) [2]: 4 (4 = no disease) | disease control grading, BOTRYTIS CINEREA (GRAPE) (BOTRYTIS CINEREA (GRAPE)): 0 (0 = 60-100% of disease on untreated plants) | disease control grading, CERCOSPORA ARACHIDICOLA (PEANUT) [3]: 1 (1 = 26-59% of disease on untreated plants) | disease control grading, VENTURIA INEQUALIS (APPLE) [4]: 1 (1 = 26-59% of disease on untreated plants)

OC(Cn1cncn1)(c1ccc(Cl)s1)c1ccc(Cl)cc1Cl (stereo not drawn) [Compound 11A, 1-(1,2,4-Triazol-l-yl)-2-(2,4-dichloroplienyl)-2-(5-chlorothien-2-yl) ethan-2-ol]
disease control grading, PUCCINIA RECONDITA (WHEAT) [1]: 4 (4 = no disease) | disease control grading, ERYSIPHE GRAMINIS (BARLEY) [2]: 4 (4 = no disease) | disease control grading, CERCOSPORA ARACHIDICOLA (PEANUT) [3]: 3 (3 = trace - 5% of disease on untreated plants) | disease control grading, VENTURIA INEQUALIS (APPLE) [4]: 4 (4 = no disease)
